Assay results reported in PMC9343874, “Comparative Pharmacokinetics of Cinobufacini Capsule and Injection by UPLC-MS/MS” (Frontiers in Pharmacology, 2022).
Where two headings read alike, the source gives them in different places.

What was measured:
[1] = Pharmacokinetic study in rats after oral administration of cinobufacini capsule (UPLC-MS/MS of plasma); assay type: in vivo, rat; conditions: male, Sprague-Dawley, in vivo, rat plasma, mean ± SD, n = 6; for CL/F: read-out: CLz/F (converted); for MRT last: read-out: MRT0-t; for MRT inf: read-out: MRT0-∞; for half-life: read-out: T1/2z (converted); for Vd/F: read-out: Vz/F
Protocol: Male Sprague–Dawley rats (weighing 200–220 g) of SPF grade were offered by Sippr/BK laboratory Animal, Corp., Ltd. (Shanghai, China) and fed in the Laboratory Animal Center of the Shanghai University of Traditional Chinese Medicine. All the rats were kept under environmentally controlled conditions with constant temperature (22–24°C) and humidity (60–65%). The animal experiment program in the present research was approved by the Animal Committee of the Shanghai University of Traditional Chinese Medicine (PZSHUTCM210618012).
An Agilent 1290 liquid chromatographic system includes a G4220A quaternary pump, a G1326C column incubator, a G4226A automatic sampler, and a G1330B degasser. The column temperature was set to 35°C. A measure of 5 µL of samples were separated in an Agilent SB-C18 column (2.1 mm ×50 mm, 1.8 μm) and eluted at 0.3 ml/min, followed by gradient elution with water (0.1% V/V formic acid) (A) and acetonitrile (B) (0–1 min, 20%–20% B; 1–3.5 min, 20%–80% B; 4–4.1 min, 80%-20% B; 4.1–6 min, 20% B). The total run time was 6 minutes.
An Agilent 1290 Infinity series UPLC system was combined with an Agilent 6460 series triple quadrupole mass spectrometer (Agilent Technologies, Santa Clara, CA, United States) to quantify all 13 analytes in an ESI-positive ionization mode. Quantitative analysis was performed in an MRM mode. The mass spectrum conditions were as follows: capillary voltage, 4000V; drying gas (N2), gas flow rate: 10 L/min; sprayer, 30 psi; gas temperature 350°C; The delta EMV (+) 200 V; collision gas (N2); dwell time, 25 ms. Agilent’s MassHunter Workstation software was used for data collection, peak area calculation, and quantitative analysis.
A measure of 50 µL of the plasma sample was mixed with 10 µL of the internal standard solution (345 ng/ml) in a 1.5-ml centrifuge tube and vortexed for 5 min. The samples were extracted by 500 µL of ethyl acetate for 5 min and centrifuged at 4°C for 10 min (18000 rpm). All the supernatants were collected into another 1.5-ml centrifuge tube, dried under a gentle stream of nitrogen at 37°C, and then added with 50 µL of 80% methanol for resolution. The resolution samples were centrifuged at 4°C for 10 min (18000 rpm), and 5 µL supernatant was extracted and injected for analysis.
Twenty-four male Sprague–Dawley rats (weigh 200–220 g) were divided into four groups with six rats in each group randomly, including three capsule groups at three different doses and one injection group. In the instructions for cinobufacini capsule and injection, the clinical dosage for adults is 2 g per 70 kg orally and 20 ml per 70 kg intravenously, converting to rat doses of 180 mg/kg and 1.8 ml/kg, respectively.
In the pre-experiments, we compared cinobufacini capsule of 180 mg/kg (one-time clinical dose) and 900 mg/kg (five times of clinical dose) and Cinobufacini injection of 1.8 ml/kg, but concentrations of some compounds in plasma were too low and difficult to be quantified. […] The experimental rats were led to fast the night and were free to get access to water for 12 h before the pharmacokinetic study. After administration, blood samples (approximately 150 μL) of rats were collected via retro-orbital sinus into heparinized centrifuge tubes at 0.05, 0.083, 0.25, 0.5, 0.75, 1, 2, 4, 6, 8, and 10 h. After centrifugation at 5,000 rpm for 10 min, the plasma was transferred to 1.5-ml polypropylene tubes and stored at −80°C until UPLC-MS/MS analysis.
GraphPad Prism software (version 8.0.2) was used to draw the mean plasma concentration–time curves of all analytes. The pharmacokinetic parameters were calculated by DAS 3.2.8 software. Meanwhile, the pharmacokinetic data on rats were presented as mean ± standard deviation (SD). Differences of pharmacokinetic parameters between groups were analyzed by the t-test using SPSS software (version 26.0). Differences were considered significant statistically when the p-values were <0.05 and very significant statistically when the p-values were <0.01.

[2] = Stability of analytes in rat plasma QC samples under storage conditions; assay type: physicochemical; conditions: n = 6; for Stability during 24 h at 4°C, RE: post-treatment storage in autosampler; for −80°C for 30 days, RE / Three freeze–thaw cycles, RE: rat plasma; for −80°C for 30 days, RE: long-term; for Three freeze–thaw cycles, RE: −80°C to room temperature
Protocol: The stability of QC samples in six replicates at three concentrations (low, medium, and high levels) was analyzed under different storage conditions: the post-treatment stability was analyzed after storage in an autosampler (4°C) for 24 h. Freeze–thaw stability was investigated after three freeze–thaw cycles (−80°C to room temperature as one cycle). Long-term stability was assessed by analyzing QC samples kept at −80°C for 30 days. The concentrations of the analytes in the plasma samples and the QC samples were calculated by the calibration standard curve prepared each day. The stabilities of analytes were acceptable when the accuracy (RE, %) and precision (RSD, %) of all QC samples in all storage conditions were within ±15% compared to nominal concentrations.

[3] = oral cinobufacini capsule 0.9 g/kg (low)
[4] = oral cinobufacini capsule 1.8 g/kg (medium)
[5] = oral cinobufacini capsule 3.6 g/kg (high)
[6] = high QC level (249.58–250.28 ng/ml)
[7] = medium QC level (49.92–50.06 ng/ml)

C[C@]12CC[C@H](O)C[C@H]1CC[C@@H]1[C@@H]2[C@H](O)C[C@]2(C)[C@@H](c3ccc(=O)oc3)CC[C@]12O [GBL, gamabufotalin]
AUC(0-inf) [1, 3]: 0.0136 ± 0.00308 µg·h/mL | AUC(0-t) [1, 3]: 0.0108 ± 0.00245 µg·h/mL | Cmax [1, 3]: 0.0133 ± 0.00528 µg/mL | Tmax [1, 3]: 15 min | CL/F [1, 3]: 9 L/h/kg | MRT last [1, 3]: 24.6 ± 6.6 min | MRT inf [1, 3]: 38.4 ± 9.6 min | half-life [1, 3]: 22.2 min | Vd/F [1, 3]: 4.75 ± 0.98 L/kg | AUC(0-inf) [1, 4]: 0.0234 ± 0.015 µg·h/mL | AUC(0-t) [1, 4]: 0.0219 ± 0.0116 µg·h/mL | Cmax [1, 4]: 0.0215 ± 0.00757 µg/mL | Tmax [1, 4]: 27.6 ± 13.8 min | CL/F [1, 4]: 12.6 L/h/kg | MRT last [1, 4]: 43.8 ± 6 min | MRT inf [1, 4]: 47.4 ± 13.2 min | half-life [1, 4]: 16.8 ± 15.6 min | Vd/F [1, 4]: 3.03 ± 2.02 L/kg | AUC(0-inf) [1, 5]: 0.0545 ± 0.0124 µg·h/mL | AUC(0-t) [1, 5]: 0.054 ± 0.012 µg·h/mL | Cmax [1, 5]: 0.0495 ± 0.0109 µg/mL | Tmax [1, 5]: 21.6 ± 12 min | CL/F [1, 5]: 9.18 L/h/kg | MRT last [1, 5]: 49.8 ± 7.2 min | MRT inf [1, 5]: 51.6 ± 8.4 min | half-life [1, 5]: 18 ± 9.6 min | Vd/F [1, 5]: 3.74 ± 1.66 L/kg | Stability during 24 h at 4°C, RE [2, 6]: 5.4% | Stability during 24 h at 4°C, RE ([2]; low QC level (4.99–5.00 ng/ml)): 12.0% | Stability during 24 h at 4°C, RE [2, 7]: 10.9% | −80°C for 30 days, RE [2, 6]: −4.9% | −80°C for 30 days, RE ([2]; low QC level (4.99–5.00 ng/ml)): 8.3% | −80°C for 30 days, RE [2, 7]: 12.4% | Three freeze–thaw cycles, RE [2, 6]: −0.6% | Three freeze–thaw cycles, RE ([2]; low QC level (4.99–5.00 ng/ml)): 13.2% | Three freeze–thaw cycles, RE [2, 7]: 10.7%

C[C@]12CC[C@H]3[C@@H](CC[C@]4(O)C[C@@H](O)CC[C@]34C=O)[C@@]1(O)CC[C@@H]2c1ccc(=O)oc1 [HBG, hellebrigenin]
AUC(0-inf) [1, 3]: 0.00421 ± 0.00223 µg·h/mL | AUC(0-t) [1, 3]: 0.00397 ± 0.00173 µg·h/mL | Cmax [1, 3]: 0.00247 ± 0.00138 µg/mL | Tmax [1, 3]: 56.4 ± 45 min | CL/F [1, 3]: 14.2 L/h/kg | MRT last [1, 3]: 215 ± 97.8 min | MRT inf [1, 3]: 229 ± 119 min | half-life [1, 3]: 61.2 ± 36 min | Vd/F [1, 3]: 14.2 ± 3.88 L/kg | AUC(0-inf) [1, 4]: 0.0138 ± 0.0054 µg·h/mL | AUC(0-t) [1, 4]: 0.0137 ± 0.0043 µg·h/mL | Cmax [1, 4]: 0.00836 ± 0.00292 µg/mL | Tmax [1, 4]: 40.8 ± 21 min | CL/F [1, 4]: 6.63 L/h/kg | MRT last [1, 4]: 137 ± 75.6 min | MRT inf [1, 4]: 153 ± 91.8 min | half-life [1, 4]: 80.4 ± 65.4 min | Vd/F [1, 4]: 11.1 ± 5.04 L/kg | AUC(0-inf) [1, 5]: 0.0311 ± 0.0114 µg·h/mL | AUC(0-t) [1, 5]: 0.0311 ± 0.0114 µg·h/mL | Cmax [1, 5]: 0.0182 ± 0.00584 µg/mL | Tmax [1, 5]: 23.4 ± 12 min | CL/F [1, 5]: 7.06 L/h/kg | MRT last [1, 5]: 128 ± 49.8 min | MRT inf [1, 5]: 128 ± 49.2 min | half-life [1, 5]: 37.8 ± 6 min | Vd/F [1, 5]: 6.35 ± 2.55 L/kg | Stability during 24 h at 4°C, RE [2, 6]: 0.8% | Stability during 24 h at 4°C, RE ([2]; low QC level (4.99–5.00 ng/ml)): 10.2% | Stability during 24 h at 4°C, RE [2, 7]: −4.7% | −80°C for 30 days, RE [2, 6]: −1.3% | −80°C for 30 days, RE ([2]; low QC level (4.99–5.00 ng/ml)): −5.0% | −80°C for 30 days, RE [2, 7]: 8.9% | Three freeze–thaw cycles, RE [2, 6]: 1.5% | Three freeze–thaw cycles, RE ([2]; low QC level (4.99–5.00 ng/ml)): 9.3% | Three freeze–thaw cycles, RE [2, 7]: −2.1%
